Among the data in PubChem BioAssay (NCI) are GI50 and TGI values, retold here.

Assay in all cases: NCI tumour cell line growth inhibition, 48 h
Assay [1] concerns A498 renal.
Assay [2] concerns ACHN renal.
Assay [3] relates to COLO 205 colon.
For assay [4], the system named is DU-145 prostate.
The subject of assay [5] is HCT-116 colon.
Assay [6] has as its system HL-60(TB) leukemia.
The test system of assay [7] is RXF 393 renal.
The test system of assay [8] is SK-MEL-28 melanoma.
Assay [9] has as its system TK-10 renal.
Assay [10] has as its system MALME-3M melanoma.

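Exposure lasted 48 hours, with cells grown in 96-well plates and compounds tested at five concentrations. Here, GI50 denotes the concentration required for 50% inhibition of growth. TGI denotes the concentration required for complete inhibition of growth.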

For the compound `O=S(=O)(Nc1ccc(Cl)cc1Cl)c1ccc(-c2cnc(C3CC3)o2)cc1`, the GI50 in assay [1] is 0.197 µM; in assay [2], 0.639 µM; in [3], 1.13 µM; in assay [4], 2.6 µM; in [5] it was 0.431 µM; in assay [6] it was 0.351 µM. Further, the GI50 was 0.359 µM in [7], 3.28 µM in assay [8] and 5.03 µM in [9]. Besides, the TGI in assay [1] is 0.875 µM; in assay [2] it was 21.5 µM; in assay [3], 11.1 µM; in [4], > 100 µM; in assay [5], > 65.4 µM; in assay [6], 9.41 µM. Besides, the TGI is 7.41 µM in [7], > 78.8 µM in assay [8] and 79.6 µM in assay [9].
Turning to `Cc1ccc(S(=O)OCc2c(C)c(C)c(COS(=O)c3ccc(C)cc3)c(C)c2C)cc1` (stereo not given), the TGI in assay [1], in assay [2], in assay [3], in assay [5], in [6] and in assay [10] was > 100 µM in each case. Further, the TGI in [7], in assay [8] and in assay [9] was > 100 µM throughout.
Regarding `CCOC(=O)c1ccc(N=Nc2cc(C(=O)OCC)ccc2O)cc1`, the TGI in assay [1], in assay [2], in assay [3], in assay [5], in assay [6] and in assay [7] was > 100 µM in each case. The TGI in assay [8] and in [9] was > 100 µM throughout.
As to `CSc1ccccc1C#C/C=C\C#Cc1ccccc1N`, the GI50 in [1] was 4.18 µM; in assay [2] it was 20.1 µM; in assay [3], 13.6 µM; in [4], 15.4 µM; in assay [5], 4.58 µM; in [6] it was 3.97 µM. Further, the GI50 in assay [7] was 24.5 µM; in assay [8], 24.7 µM. Moreover, the TGI in [1] is 14.5 µM; in [2], > 100 µM; in assay [3], 29.5 µM; in assay [4] it was 45.6 µM; in [5], 16.9 µM; in assay [6] it was > 100 µM. The TGI is > 100 µM in assay [7] and 50.4 µM in assay [8].
In the case of `CC(=O)N1CCC(=O)/C(=C/c2ccccc2)C1`, the TGI was > 100 µM in assay [1]; 56.8 µM in assay [2]; > 100 µM in assay [3]; 32.2 µM in assay [5]; > 100 µM in [10]; 67.6 µM in [7]. For the same compound, the TGI in assay [8] was 38.3 µM; in assay [9] it was > 100 µM.
`O=C(Nc1cc(C(F)(F)F)ccc1Cl)c1cccc(NC2=C(Cl)C(=O)N(Cc3ccccc3)C2=O)c1`: the GI50 is 28.5 µM in assay [1]; 99.9 µM in assay [2]; 41.5 µM in [3]; 54.4 µM in assay [4]; 10.3 µM in [5]; 3.52 µM in assay [6]. The GI50 is > 100 µM in [8] and 34.2 µM in assay [9]. For the same compound, the TGI is 92.9 µM in [1]; > 100 µM in [2]; > 100 µM in assay [3]; > 100 µM in [4]; > 100 µM in assay [5]; 9.23 µM in assay [6]. Further, the TGI in [8] and in assay [9] was > 100 µM in each case.
As for `C[Si](C)(C)/C(I)=C/CO`, the TGI in assay [1] was > 100 µM; in assay [2] it was 46.4 µM; in [3] it was 31.1 µM; in assay [5], 27.5 µM; in assay [10] it was 74.9 µM; in assay [8], 77.5 µM. The same compound had a TGI in [9] of 96.9 µM.
For `C=CCN1CCC23c4c5ccc(O)c4OC2C(=NN=C2CCC4(O)C6Cc7ccc(O)c8c7C4(CCN6CC=C)C2O8)CCC3(O)C1C5` (stereo not given), the TGI in assay [1] turned out to be 41.5 µM; in [2], 41.2 µM; in assay [3], 42.1 µM; in assay [10], 33.4 µM; in [8] it was 35.3 µM; in [9], 43.7 µM.
As to `Cc1ccc2c(C3C(C#N)=C(N)Oc4cc5ccccc5cc43)cc(=O)oc2c1` (stereo not given), the GI50 in [1] is 4.23 µM; in [2], 4.54 µM; in assay [3] it was 2.88 µM; in assay [4] it was 3.79 µM; in assay [5], 0.531 µM; in assay [6], 0.424 µM. Besides, the GI50 in [7] was 0.671 µM; in [8], 12.3 µM; in [9], 17.6 µM. Further, the TGI in assay [1] is 86.3 µM; in assay [2], > 100 µM; in assay [3] it was 17.3 µM; in assay [4] it was > 100 µM; in [5] it was 32.8 µM; in assay [6], 17 µM. In addition, the values for the TGI in [7], in assay [8] and in assay [9] were 6.11 µM, > 100 µM and > 100 µM, respectively.
For `Cc1nc2cc(Nc3nc(Nc4ccc(F)cc4)nc(-c4cccs4)n3)ccc2n1Cc1ccccc1`, the GI50 in assay [1] is 5.41 µM; in [2] it was 3.86 µM; in [3], 3.7 µM; in [4], 7.7 µM; in assay [5] it was 3.35 µM; in assay [6], 2.46 µM. For the same compound, in assay [8], the GI50 was 9.47 µM. For the same compound, the TGI in [1] is 73.3 µM; in assay [2] it was 59.9 µM; in assay [3], 12.9 µM; in assay [4] it was > 100 µM; in [5], 13.3 µM; in assay [6], 6.5 µM. For the same compound, the TGI in [8] was > 100 µM.
Consider `COC(=O)C1=C(C(=O)OC)C2=S(SC3=C2CCCC3)S1` (stereo not given), for which the TGI in assay [2] was > 100 µM; in assay [3], > 100 µM; in assay [6] it was 30.9 µM; in assay [10] it was 71.1 µM; in assay [7], 32.3 µM; in assay [8], > 100 µM. Besides, in assay [9], the TGI was > 100 µM.
In the case of `CC(C)=CCc1cc2c(cc1O)OC[C@H]1c3cc4c(cc3O[C@@H]21)OCO4`, the TGI was > 100 µM in [2]; > 100 µM in assay [3]; > 100 µM in [4]; 32.2 µM in assay [5]; 71.9 µM in [6]; 48.7 µM in assay [7]. Also, the TGI in assay [8] and in [9] was > 100 µM in each case.
